Measurements as given in paper PMC5818060 (Journal of Cell Science, 2018).
Ends that are not written are not given here. Peptide text beside a SMILES is read from it. * marks the point of attachment. Biotin = O=C1N[C@H]2[C@H](CS[C@H]2CCCCC(=O)*)N1

How the values were obtained:
[1] = tested on: endogenous CK1 / CK1 sensor in HEK293T cells; experiment: CK1 FRET biosensor, microplate reader FRET/CFP ratio; type: cell-based, human; conditions: HEK293T with CK1 sensor; for effect of transfected peptide on FRET/CFP ratio (endogenous CK1 activity): peptide transfected (Metafectene), analyzed 1.5 h after peptide transfection, n=3; for size of reduction of CK1 biosensor activity relative to CK1-specific small-molecule inhibitors or DDX3X siRNA: transfected peptide
Description: HEK293T cells were seeded at a density of 20,000 cells/well on 96-well black microplates (PS, μClear, clear bottom, chimney well, Greiner No. 655090). Transfection was performed as described above. Unless indicated otherwise, the respective cell populations were transfected with 50-100 ng CK1 FRET biosensor, 100 ng regulator (i.e. N-Flag DDX3X) and 1-10 ng kinase (i.e. N-Flag CK1ε). Either empty pCS2 N-Flag vector or luciferase were used to transfect the same amount of DNA in every well. Generally, the different samples were run in triplicate for each individual experiment. Owing to the varying values for the FRET/CFP ratios based on transfection efficiency, cell density and the time point of analysis, we always set the FRET/CFP ratio of cells only transfected with the CK1 sensor to 1 in order to compare individual experiments. Importantly, the individual figures with the CK1 sensor represent only experiments performed on the same 96-well plate with the same cell density, transfection efficiency and time point.
Where applicable, the small-molecule CK1 inhibitor D4476 (BioVision) was added to the cells 2-4 h prior to the analysis. For each triplicate the respective volume of D4476 (in DMSO) was added together with 1 μl Fugene HD (Promega) to 60 μl serum-free medium. The solution was mixed, incubated for 15 min and added to the cells. […] In the corresponding controls an equal amount of DMSO instead of the inhibitor was added to the medium. Analysis was performed 48-60 h after transfection on an Infinite M1000 PRO microplate reader (Tecan) by exciting CFP with a wavelength of 433 nm and measuring the resulting emission at 460-600 nm in 2 nm increments. Fluorometric spectra were background subtracted with spectra recorded from wells with non-transfected cells. Resulting FRET/CFP ratios were calculated by dividing the intensity values at the respective peaks (478 nm for CFP, 528 nm for YFP) and analyzed essentially as described ([Fritz et al., 2013]). Where indicated, CK1δ/ε-derived peptides were transfected into cells using Metafectene (Biontex) 1 hour before measurements.

[2] = tested on: DDX3X^414-582 (C-terminal helicase domain); experiment: Biolayer interferometry (BLItz); type: binding, human; conditions: biotin-peptide 100 µM loaded on streptavidin chip; DDX3X^414-582 250 µM; 50 mM Tris-HCl pH 7.5, 10 mM NaCl; 60 s association/dissociation; three recordings
Description: Biolayer interferometry was measured on the BLItz system (Pall ForteBIO LLC). High Precision Streptavidin biosensor chips were loaded three times with 100 µM biotin-coupled CK1 peptides in 50 mM Tris-HCl (pH 7.5), 10 mM NaCl for 30 s, followed by a step to block free biotin binding sites with 10 µM biocytin. Association and dissociation times of DDX3X^414-582 (250 µM) were fixed at 60 s. Binding and dissociation curves were recorded three times.

His-DDX3X^414-582 [3] = target: T1, His-DDX3X^414-582 (Homo sapiens, UniProt O00571); experiment: Direct-binding ELISA of biotinylated CK1 peptides on coated His-DDX3X^414-582; conditions: 1 µg/well biotinylated peptide, 2.5 h, room temperature; HRP-streptavidin/ABTS, 405 nm; data normalized to δ-141 = 100%; n=3
T1 construct: contained 10 µM His-DDX3X^414-582; His; made in house; host or cells: E. coli Rosetta2 (pET28a)
Description: According to the amino acid sequences of the N-terminal and the kinase domain of human CK1δ (UniProt entry P48730), 30 CK1δ-derived peptides were generated. In order to investigate the effects of sequence-specific differences in the sequence of CK1ε (UniProt entry P49674) compared with CK1δ, seven additional CK1ε-derived peptides were generated (Fig. S2). Each peptide consists of 15 amino acids with the first and last five amino acids always overlapping the previous and the following peptide, respectively. At the N-terminus the peptides were coupled to biotin via a four amino acid spacer sequence (SGSG). For peptide position and sequence information see Fig. S2. All peptides were pre-dissolved in DMSO (final concentration of 12.5% DMSO in the peptide stock).
His-DDX3X^414-582 protein fragment was coated onto 96-well Nunc MaxiSorp plates (NUNC, Denmark) at a final concentration of 0.01 µg/µl in 100 mM sodium carbonate buffer (pH 9.6) at 4°C overnight. Unspecific binding sites were blocked with 5% FCS in PBS. Biotinylated CK1δ- and CK1ε-derived peptides (1 µg/well) were added and incubated for 2.5 h at room temperature. DMSO (0.35%) and water were used as negative controls. Detection of the bound biotinylated peptides was performed by incubation with HRP-streptavidin (1:8000 in 0.5% FCS in PBS). Finally, plates were incubated with ABTS detection reagent [50 mM potassium phosphate buffer, pH 5.7, 5% ABTS solution (1 mg/ml), 0.05% H2O2]. Absorption was measured at 405 nm after incubation for 40 min.

CK1ε = experiment: In vitro radioactive kinase assay, CK1ε activity itself (no DDX3X stimulation); type: biochemical, human; conditions: 0.3 µM peptide; n=3
Description: (§1) Kinase assays were carried out essentially as described ([Cruciat et al., 2013]). For kinase assays, full-length DDX3X protein was expressed and purified from HEK293T cells as described for the ATPase assay. Deletion constructs were purified from E. coli. The eluted proteins were visualized using Coomassie Blue and the intensity of the protein bands was measured using ImageJ. The amounts used for kinase assays were estimated based on this staining. Where indicated, dsRNA was premixed with proteins at room temperature (RT) for 15 min before subjecting samples to radioactive kinase assays. The CK1 substrate peptide […] for the kinase assay and samples was analyzed using p81 phosphocellulose (Biomol) as described ([Zhai et al., 1992]). 0.3 µM CK1δ/ε-derived and control peptides were used ([Schacherl et al., 2015]). For mass spectrometric analyses DDX3X helicase core (His-DDX3X^168-582) as well as the C-terminal helicase domain (His-DDX3X^414-582) were in vitro phosphorylated by CK1ε. Also, reactions without addition of kinase were performed and analyzed in order to correct for false-positive results. Mass spectrometry data acquisition and analysis of trypsin-digested samples were performed at the Core Unit Mass Spectrometry and Proteomics (Ulm University) essentially as described in [Meng et al. (2016)].

[4] = tested on: DDX3X-stimulated CK1ε (CK1εΔC); experiment: In vitro radioactive kinase assay, DDX3X-stimulated CK1ε activity; type: biochemical, human; conditions: 0.3 µM peptide; recombinant DDX3X and CK1εΔC; CK1εΔC alone set to 1; n=3
Description: as §1

His-DDX3X^414-582 [5] = target: T1, His-DDX3X^414-582; experiment: Fluorescence thermal shift (FTS) assay; type: binding; conditions: 20 µM peptide, 10 µM His-DDX3X^414-582, 50 mM HEPES pH 8, SYPRO-Orange
Description: FTS reactions were performed in a total volume of 20 µl in 50 mM HEPES (pH 8) and contained 10 µM His-DDX3X^414-582, a final concentration of 20 µM of each indicated CK1δ- or CK1ε-derived peptide, as well as 10×SYPRO-Orange (Invitrogen). DMSO (0.35%) and water were used as controls. Measurements were performed in a LightCycler 480 device for real-time PCR (Roche) according to the manufacturer's instructions. Respective protein melting temperatures were calculated using the protein-melting evaluation software supplied by Roche.

T1 sequence (O00571 414-582): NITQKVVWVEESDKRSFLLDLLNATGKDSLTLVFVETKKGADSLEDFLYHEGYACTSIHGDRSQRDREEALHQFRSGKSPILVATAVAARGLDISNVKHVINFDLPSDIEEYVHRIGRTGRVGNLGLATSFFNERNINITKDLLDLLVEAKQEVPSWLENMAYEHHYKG

CC[C@H](C)[C@H](NC(=O)[C@H](CCCCN)NC(=O)[C@H](CCCNC(=N)N)NC(=O)CNC(=O)[C@H](CC(C)C)NC(=O)[C@H](CCCNC(=N)N)NC(=O)[C@H](Cc1ccc(O)cc1)NC(=O)[C@H](CCCNC(=N)N)NC(=O)[C@H](CC(N)=O)NC(=O)CNC(=O)[C@@H](NC(=O)[C@H](CCCNC(=N)N)NC(=O)[C@H](CC(C)C)NC(=O)[C@H](CCC(=O)O)NC(=O)[C@H](CCSC)NC(=O)CNC(=O)[C@H](CO)NC(=O)CNC(=O)[C@H](CO)NC(=O)CCCC[C@@H]1SC[C@@H]2NC(=O)N[C@@H]21)C(C)C)C(=O)O [δ-1] (HELM PEPTIDE1{[O=C1N[C@H]2[C@H](CS[C@H]2CCCCC(=O)[*:2])N1].S.G.S.G.M.E.L.R.V.G.N.R.Y.R.L.G.R.K.I}$$$$V2.0; C-terminus assumed)
effect of transfected peptide on FRET/CFP ratio (endogenous CK1 activity) [1]: reduced the FRET/CFP ratio
size of reduction of CK1 biosensor activity relative to CK1-specific small-molecule inhibitors or DDX3X siRNA [1]: less pronounced
binding to C-terminal helicase domain of DDX3X (BLItz) [2]: strongly interacted with δ-1
Binding to His-DDX3X^414-582 (ELISA) (His-DDX3X^414-582 [3]): to a lesser extent
effect of peptide on CK1ε kinase activity itself (CK1ε): without affecting kinase activity itself
effect of peptide on DDX3X stimulation of CK1ε kinase activity [4]: impaired the stimulation of CK1ε kinase activity
Tm shift / binding by FTS, in words (His-DDX3X^414-582 [5]): clearly demonstrated

biotin-SGSG-APPTPLTPTSHTANT [δ-341]
effect of transfected peptide on FRET/CFP ratio (endogenous CK1 activity) [1]: but not ε-1 or the negative control peptide δ-341, reduced the FRET/CFP ratio
Binding to His-DDX3X^414-582 (ELISA) (His-DDX3X^414-582 [3]): non-binding
Tm shift / binding by FTS, in words (His-DDX3X^414-582 [5]): did not cause Tm shifts

ε-241: CK1ε-derived 15mer peptide (Biotin-SGSGCKGYPSEFSTYLNFC; cysteine pairing not given here)
Binding to His-DDX3X^414-582 (ELISA) (His-DDX3X^414-582 [3]): strongest binding

ε-61: CK1ε-derived 15mer peptide (Biotin-SGSGGGVGIPSIKWCGAEG)
Binding to His-DDX3X^414-582 (ELISA) (His-DDX3X^414-582 [3]): strongest binding

CC[C@H](C)[C@H](NC(=O)[C@H](CCCCN)NC(=O)[C@H](CO)NC(=O)[C@H](CCC(=O)O)NC(=O)[C@@H](NC(=O)[C@H](Cc1c[nH]cn1)NC(=O)[C@H](CC(C)C)NC(=O)[C@H](CCC(N)=O)NC(=O)[C@@H]1CCCN1C(=O)[C@H](Cc1c[nH]cn1)NC(=O)[C@H](CCCCN)NC(=O)[C@@H](NC(=O)[C@H](CCCCN)NC(=O)[C@@H](NC(=O)[C@H](CS)NC(=O)CNC(=O)[C@H](CO)NC(=O)CNC(=O)[C@H](CO)NC(=O)CCCC[C@@H]1SC[C@@H]2NC(=O)N[C@@H]21)C(C)C)[C@@H](C)O)[C@@H](C)CC)C(=O)O [δ-41] (HELM PEPTIDE1{[O=C1N[C@H]2[C@H](CS[C@H]2CCCCC(=O)[*:2])N1].S.G.S.G.C.V.K.T.K.H.P.Q.L.H.I.E.S.K.I}$$$$V2.0; C-terminus assumed)
effect of transfected peptide on FRET/CFP ratio (endogenous CK1 activity) [1]: reduced the FRET/CFP ratio
size of reduction of CK1 biosensor activity relative to CK1-specific small-molecule inhibitors or DDX3X siRNA [1]: less pronounced
binding to C-terminal helicase domain of DDX3X (BLItz) [2]: no binding
Binding to His-DDX3X^414-582 (ELISA) (His-DDX3X^414-582 [3]): to a lesser extent
effect of peptide on CK1ε kinase activity itself (CK1ε): without affecting kinase activity itself
effect of peptide on DDX3X stimulation of CK1ε kinase activity [4]: impaired the stimulation of CK1ε kinase activity
Tm shift / binding by FTS, in words (His-DDX3X^414-582 [5]): clearly demonstrated

ε-41: CK1ε-derived 15mer peptide (Biotin-SGSGCVKTKHPQLHIESKF)
effect of transfected peptide on FRET/CFP ratio (endogenous CK1 activity) [1]: reduced the FRET/CFP ratio
size of reduction of CK1 biosensor activity relative to CK1-specific small-molecule inhibitors or DDX3X siRNA [1]: less pronounced
Binding to His-DDX3X^414-582 (ELISA) (His-DDX3X^414-582 [3]): to a lesser extent
effect of peptide on CK1ε kinase activity itself (CK1ε): without affecting kinase activity itself
effect of peptide on DDX3X stimulation of CK1ε kinase activity [4]: impaired the stimulation of CK1ε kinase activity
Tm shift / binding by FTS, in words (His-DDX3X^414-582 [5]): clearly demonstrated

δ-31: CK1δ-derived 15mer peptide (Biotin-SGSGAGEEVAIKLECVKTK)
Binding to His-DDX3X^414-582 (ELISA) (His-DDX3X^414-582 [3]): strongest binding

δ-141: CK1δ-derived 15mer peptide (Biotin-SGSGKGNLVYIIDFGLAKK)
Binding to His-DDX3X^414-582 (ELISA) (His-DDX3X^414-582 [3]): strongest binding

δ-91: CK1δ-derived 15mer peptide (Biotin-SGSGDLFNFCSRKFSLKTV)
Binding to His-DDX3X^414-582 (ELISA) (His-DDX3X^414-582 [3]): strongest binding

δ-231: CK1δ-derived 15mer peptide (Biotin-SGSGKKMSTPIEVLCKGYP)
Binding to His-DDX3X^414-582 (ELISA) (His-DDX3X^414-582 [3]): to a lesser extent

δ-101: CK1δ-derived 15mer peptide, negative control (Biotin-SGSGSLKTVLLLADQMISR)
Binding to His-DDX3X^414-582 (ELISA) (His-DDX3X^414-582 [3]): showed no binding
effect of peptide on DDX3X stimulation of CK1ε kinase activity [4]: did not interfere with the DDX3X stimulation
Tm shift / binding by FTS, in words (His-DDX3X^414-582 [5]): did not cause Tm shifts
